Assay results: patent US20100081679A1, “DIAMINOPYRIMIDINES AS FUNGICIDES” (Bayer CropScience AG, priority 2007, published 2010)
Marks after values point to notes of the source that are not given here. Values belong to the compound of their own block, whether it stands above or below them.

Experiment: logP determination via retention times, calibrated with unbranched alkan-2-ones
Format: physicochemical
[1] = HPLC on reversed-phase C18, method *: 40° C., mobile phase 0.1% aqueous formic acid and acetonitrile, linear gradient 10% to 95% acetonitrile
[2] = method *: HPLC reversed-phase C 18, temperature 40° C., mobile phase 0.1% aqueous formic acid and acetonitrile, linear gradient 10% to 95% acetonitrile
[3] = HPLC on reversed-phase C18, method *: 40° C., 0.1% aqueous formic acid and acetonitrile, linear gradient 10% to 95% acetonitrile
[4] = HPLC on reversed-phase C18 column (EEC Directive 79/831 Annex V.A8), method *: 40° C., 0.1% aqueous formic acid and acetonitrile, linear gradient 10% to 95% acetonitrile
[5] = method **: HPLC reversed-phase C 18, 43° C., 0.1% aqueous phosphoric acid and acetonitrile, linear gradient 10% to 95% acetonitrile
[6] = HPLC reversed-phase C 18, EEC Directive 79/831 Annex V.A8, method *: 40° C., 0.1% aqueous formic acid and acetonitrile, linear gradient 10% to 95% acetonitrile
[7] = method **: HPLC, reversed-phase C 18, 43° C., mobile phase 0.1% aqueous phosphoric acid and acetonitrile, linear gradient from 10% to 95% acetonitrile
[8] = HPLC on reversed-phase C 18, method **: 43° C., 0.1% aqueous phosphoric acid and acetonitrile, linear gradient 10% to 95% acetonitrile
[9] = method *: HPLC reversed-phase C18, 40° C., 0.1% aqueous formic acid and acetonitrile, linear gradient 10% to 95% acetonitrile
[10] = method *: HPLC, reversed-phase C 18, 40° C., mobile phase 0.1% aqueous formic acid and acetonitrile, linear gradient from 10% to 95% acetonitrile
[11] = HPLC on reversed-phase C 18, EEC Directive 79/831 Annex V.A8, method *: 40° C., 0.1% aqueous formic acid and acetonitrile, linear gradient 10% to 95% acetonitrile

Compound: CC(=O)c1ccc(Nc2ncc(F)c(NC3CC3)n2)cc1 [compound 590]
- logP [2]: 1.53*

Compound: CCOc1ccccc1Nc1ncc(Cl)c(NC2CC2)n1 [compound 876]
- logP [3]: 2.13*

Compound: CC(=O)Nc1cc(Nc2ncc(Cl)c(NCC3CC3)n2)ccc1C [compound 679]
- logP [3]: 1.49*

Compound: CC(=O)N(C)c1ccc(Nc2ncc(F)c(NC3CC3)n2)cc1 [compound 582]
- logP [2]: 1.23*

Compound: N#Cc1cnc(Nc2ccc3c(c2)CC(=O)N3)nc1NC1CC1 [compound 613]
- logP [2]: 1.5*

Compound: COC(C)c1cccc(Nc2ncc(C(F)(F)F)c(NCC3CC3)n2)c1 (racemic) [compound 962]
- logP [3]: 3.29*

Compound: O=S(=O)(c1cccc(Nc2ncc(C(F)(F)F)c(NCC3CC3)n2)c1)N1CCCCC1 [compound 209]
- logP [4]: 3.81*

Compound: CC(=O)NS(=O)(=O)c1ccc(Nc2ncc(Cl)c(NC3CC3)n2)cc1 [Example 24]
- logP [5]: 1.64**

Compound: CC(C)OC(=O)Nc1cccc(Nc2ncc(Cl)c(NC3CC3)n2)c1 [compound 302]
- logP [1]: 1.99*

Compound: CSC(C)c1cccc(Nc2ncc(Cl)c(NC3CC3)n2)c1 (stereo not drawn) [compound 807]
- logP [6]: 2.52*

Compound: COCc1cccc(Nc2ncc(Cl)c(N(Cc3ccc(OC)cc3)C3CC3)n2)c1 [compound 1044]
- logP [7]: 4.07**

Compound: CNC(=O)c1ccc(Nc2ncc(F)c(NC3CC3)n2)cc1 [compound 584]
- logP [2]: 1.05*

Compound: CCNC(=O)c1cccc(Nc2ncc(Cl)c(NC3CC3)n2)c1 [compound 631]
- logP [2]: 1.35*

Compound: CC(C)(O)c1cccc(Nc2ncc(Cl)c(NC3CC3)n2)c1 [compound 784]
- logP [6]: 1.47*

Compound: CN(CC1CC1)c1nc(Nc2ccccc2)ncc1Cl [compound 963]
- logP [8]: 2.72**

Compound: CSC(C)c1cccc(Nc2ncc(C(F)(F)F)c(NC3CC3)n2)c1 (stereo not drawn) [compound 825]
- logP [6]: 3.81*

Compound: COc1ccc(Nc2ncc(Br)c(NCC3CC3)n2)cc1OC [compound 409]
- logP [9]: 1.68*

Compound: CCc1cccc(Nc2ncc(Cl)c(N(C)C3CC3)n2)c1 [compound 1058]
- logP [10]: 3.65*

Compound: CC(C)(C)OC(=O)NCc1ccc(Nc2ncc(Br)c(NC3CC3)n2)cc1 [compound 329]
- logP [1]: 2.02*

Compound: FC(F)(F)c1cnc(Nc2ccccc2)nc1NC1CC1 [Example 93]
- logP [5]: 2.62**

Compound: COc1cc(Nc2ncc(C(F)(F)F)c(NCC3CC3)n2)cc(OC)c1OC [compound 217]
- logP [4]: 2.57*

Compound: Cc1cc(Nc2ncc(Cl)c(NCC3CC3)n2)ccc1O [compound 558]
- logP [11]: 1.51*

Compound: CC(C)(CF)C(=O)Nc1ccc(Nc2ncc(Cl)c(NC3CC3)n2)cc1 [Example 67]
- logP [9]: 1.74*

Compound: CC(C)Sc1cccc(Nc2ncc(Cl)c(NC3CC3)n2)c1 [compound 264]
- logP [4]: 3.18*

Compound: CCNC(=O)c1cccc(Nc2ncc(C(F)(F)F)c(NC3CC3)n2)c1 [compound 1031]
- logP [10]: 2.07*

Compound: CC(Nc1nc(Nc2ccc(F)cc2)ncc1Cl)C1CC1 (stereo not drawn) [compound 167]
- logP [3]: 2.27*

Compound: CCOC(=O)C1(Nc2nc(Nc3ccccc3)ncc2Cl)CC1 [compound 315]
- logP [1]: 2.17*

Compound: O=C(Nc1ccccc1)Nc1ccc(Nc2ncc(Cl)c(NC3CC3)n2)cc1 [compound 739]
- logP [3]: 1.75*

Compound: CSc1ccccc1Nc1ncc(Cl)c(NC2CC2)n1 [compound 880]
- logP [3]: 2.18*

Compound: COc1ccc(CN(c2nc(Nc3cccc(SC)c3)ncc2Cl)C2CC2)cc1 [compound 1026]
- logP [7]: 4.78**

Compound: FC(F)(F)c1nc2ccc(Nc3ncc(Cl)c(NC4CC4)n3)cc2[nH]1 [Example 68]
- logP [9]: 1.55*

Compound: CCOc1ccc(Nc2ncc(Cl)c(NC3CC3)n2)cc1 [compound 183]
- logP [4]: 1.76*

Compound: N#Cc1cc(Nc2ncc(Cl)c(NC3CC3)n2)ccc1N1CCCC1 [compound 439]
- logP [5]: 2.23**

Compound: Cc1cnc(Nc2cccc(N3CCCC3=O)c2)nc1NC1CC1 [compound 567]
- logP [2]: 1.14*

Compound: FC(F)(F)Oc1ccc(Nc2ncc(Br)c(NCC3CC3)n2)cc1 [compound 476]
- logP [11]: 3.1*

Compound: CN(C)S(=O)(=O)c1cccc(Nc2ncc(Cl)c(NC3CC3)n2)c1 [Example 28]
- logP [5]: 2.04**

Compound: CC(C)C(=O)Nc1ccc(Nc2ncc(Cl)c(NC3CC3)n2)cc1 [compound 111]
- logP [3]: 1.43*

Compound: CC(=O)Cc1ccc(Nc2ncc(Cl)c(NC3CC3)n2)cc1 [compound 851]
- logP [6]: 1.48*

Compound: O=C(N(c1ccc(Nc2ncc(Cl)c(NC3CC3)n2)cc1)C1CC1)C(F)(F)F [compound 120]
- logP [3]: 2.54*

Compound: O=C1Cc2cc(Nc3ncc(Cl)c(NCC4CC4)n3)ccc2N1 [compound 516]
- logP [11]: 1.31*

Compound: O=C(c1cccc(Nc2ncc(Cl)c(NC3CC3)n2)c1)N1CCNCC1 [compound 1065]
- logP [10]: 0.53*

Compound: COCc1cccc(Nc2ncc(Cl)c(NC3CC3)n2)c1 [compound 268]
- logP [4]: 1.67*

Compound: CS(=O)(=O)Cc1cccc(Nc2ncc(Cl)c(NC3CC3)n2)c1 [compound 243]
- logP [4]: 1.46*

Compound: CN(C)S(=O)(=O)c1ccc(Nc2ncc(Cl)c(NC3CC3)n2)cc1.Cl [Example 78]
- logP [9]: 2.26*

Compound: CC(C)C(=O)Nc1cccc(Nc2ncc(Br)c(NCC3CC3)n2)c1 [compound 460]
- logP [9]: 1.85*

Compound: CCC(C)c1ccc(Nc2ncc(Cl)c(NC3CC3)n2)cc1 (racemic) [compound 954]
- logP [3]: 2.77*

Compound: COC(=O)Cc1cccc(Nc2ncc(C#N)c(NC3CC3)n2)c1 [compound 606]
- logP [2]: 2.39*

Compound: COC(=O)Nc1ccc(Nc2ncc(C#N)c(NC3CC3)n2)cc1 [compound 159]
- logP [3]: 1.91*

Compound: CC(=O)N(c1ccc(Nc2ncc(Cl)c(NC3CC3)n2)cc1)C1CC1 [Example 63]
- logP [9]: 1.62*

Compound: FC(F)(F)c1cnc(Cl)nc1NCC1CC1 [2-chloro-N-(cyclopropylmethyl)-5-trifluoromethylpyrimidine-4-amine]
- chromatographic logP (pH 2.3, read-out: logP (pH2.3)): 3.4

Compound: O=C1NC(=O)C(c2ccc(Nc3ncc(Cl)c(NCC4CC4)n3)cc2)N1 (stereo not drawn) [compound 512]
- logP [11]: 1.27*

Compound: Fc1cc(C(F)(F)F)ccc1Nc1ncc(Cl)c(NC2CC2)n1 [compound 934]
- logP [3]: 3.68*

Compound: CC(C)(C)C(=O)Nc1ccc(Nc2ncc(Br)c(NCC3CC3)n2)cc1 [compound 450]
- logP [9]: 1.99*

Compound: COc1cc(Nc2ncc(C(F)(F)F)c(NC3CC3)n2)cc(OC)c1OC [compound 719]
- logP [8]: 2.56**

Compound: Ic1cnc(Nc2ccccc2)nc1NC1CC1 [compound 364]
- logP [9]: 1.82*

Compound: CC(=O)Nc1ccc(Nc2ncc(Cl)c(NC3CC3)n2)cc1O [compound 822]
- logP [6]: 1*

Compound: C#CCS(=O)(=O)c1ccc(Nc2ncc(Cl)c(NC3CC3)n2)cc1 [compound 161]
- logP [3]: 2.21*

The remaining lines, values ahead:

- logP [1]: 2.55*
Compound: CO/N=C/c1ccc(Nc2ncc(Br)c(NC3CC3)n2)cc1 [compound 338]

- logP [1]: 2.18*
Compound: CC(C)(C)NC(=O)c1ccc(Nc2ncc(Br)c(NC3CC3)n2)cc1 [compound 352]

- logP [3]: 2.06*
Compound: CCC(=O)c1cc(Nc2ncc(Br)c(NC3CC3)n2)ccc1O [compound 760]

- logP [4]: 1.09*
Compound: Cc1cc(Nc2ncc(Cl)c(NC3CC3)n2)ccc1O [compound 180]

- logP [3]: 1.54*
Compound: C=CC(=O)Nc1cccc(Nc2ncc(Br)c(NC3CC3)n2)c1 [compound 754]

- logP [3]: 4.43*
Compound: Clc1cc(Cl)cc(Nc2ncc(Br)c(NC3CC3)n2)c1 [compound 749]

- logP [3]: 2.6*
Compound: Clc1ccccc1Nc1ncc(Cl)c(NC2CC2)n1 [compound 940]

- logP [10]: 2.84*
Compound: CCOC(=O)c1cc(Nc2ncc(Cl)c(NC3CC3)n2)ccc1Cl [compound 990]

- logP [6]: 1.72*
Compound: CC(=O)CCc1cccc(Nc2ncc(Cl)c(NC3CC3)n2)c1 [compound 841]

- logP [9]: 1.8*
Compound: Fc1ccc(Nc2ncc(Cl)c(NC3CC3)n2)cc1 [Example 80]

- logP [6]: 1.94*
Compound: OC(c1cccc(Nc2ncc(Br)c(NC3CC3)n2)c1)C(F)(F)F (stereo not drawn) [compound 798]

- logP [1]: 2.13*
Compound: Cc1cc(C)cc(Nc2ncc(Cl)c(NC3CC3)n2)c1 [compound 274]

- logP [3]: 1.65*
Compound: CC(=O)c1cc(Nc2ncc(Cl)c(NC3CC3)n2)ccc1O [Example 101]

- logP [3]: 2.4*
Compound: CCOC(=O)c1cccc(Nc2ncc(Br)c(NC3CC3)n2)c1 [compound 750]

- logP [1]: 2.33*
Compound: CN(C)S(=O)(=O)c1ccc(Nc2ncc(Br)c(NC3CC3)n2)cc1 [compound 346]

- logP [5]: 1.8**
Compound: Brc1cnc(Nc2ccccc2)nc1NC1CC1 [Example 30]

- logP [3]: 3.46*
Compound: Cc1cc(Cl)c(Br)cc1Nc1ncc(Cl)c(NC2CC2)n1 [compound 933]

- logP [1]: 2.55*
Compound: Clc1cnc(Nc2ccc(Br)cc2)nc1NC1CC1 [compound 281]

- logP [9]: 3.36*
Compound: CC(C)COc1cccc(Nc2ncc(Br)c(NC3CC3)n2)c1 [compound 445]

- logP [3]: 1.53*
Compound: CCOC(=O)Nc1ccc(Nc2ncc(Br)c(NC3CC3)n2)cc1O [compound 728]

- logP [1]: 1.54*
Compound: CC(=O)N(C)c1ccc(Nc2ncc(Br)c(NC3CC3)n2)cc1 [compound 349]

- logP [4]: 1.9*
Compound: COc1cc(Nc2ncc(Cl)c(NC3CC3)n2)ccc1F [compound 259]

- logP [3]: 4.13*
Compound: FC(F)(F)Oc1ccc(Nc2ncc(Br)c(NC3CC3)n2)cc1Cl [compound 753]

- logP [3]: 2.99*
Compound: FC(F)Sc1ccc(Nc2ncc(Br)c(NC3CC3)n2)cc1 [Example 104]
